Results published in US5059590A, “Imidazole derivatives, process for production thereof, and use thereof” (Yamasa Shoyu Kabushiki Kaisha, priority 1988, dated 1991).
In brackets after ≈: the same amount, converted by molar mass.

Tests used:
Format in all cases: cell-based
mouse sarcoma 180 = assay: In vitro anti-proliferative activity against mouse tumor cell lines, Test Method 2 (sarcoma 180); conditions: Sarcoma 180, 48 hours, 37° C.
Description: (§1) In vitro anti-proliferative activity against mouse tumor cell lines
(§2) 1. Mouse lymphoma cell line P388 or mouse sarcoma 180 is suspended in RPMI1640 medium supplemented with 10% fetal bovine serum and 2 μM 2-hydroxyethyl disulfide to a concentration of 10^5 cells/ml. Test compounds are serially diluted with the same medium.
(§3) 2. 0.5 ml of the cell suspension thus obtained is admixed with 0.5 ml of the medium or the test compound solution, and the mixture is incubated in a 5% CO2 -incubator at 37° C. for 48 hours. The incubation is carried out in glass culture tubes.
(§4) 3. At the end of incubation, the number of the cells in each tube is counted with a Coulter counter (Model ZB, Coulter Electronics), and the growth inhibition percent (%) is calculated from the same equation as in Test Method 1.
(§5) 4. The IC50 value is obtained as in Test Method I.

[1] = test system: L1210 mouse leukemia cells; assay: In vitro anti-proliferative activity against mouse tumor cell lines, Test Method 1 (L1210); conditions: L1210, 48 hours, 37° C.
Description: as §1
1. L1210 mouse leukemia cells are cultivated in RPMI1640 medium supplemented with 10% fetal bovine serum, and the resultant cells are diluted with the same medium in the logarithmic growth phase to a concentration of 1.6×10^5 cells/ml.
2. To test tubes each containing 0.9 ml of the above obtained diluted cell suspension is added 0.1 ml each of test solutions serially diluted with a culture medium or phosphate-buffered saline (PBS), and the mixture is incubated in a 2% CO2 -incubator at 37° C. for 48 hours.
3. After incubation, the number of the cells in each tube is counted with a Coulter counter (Model ZB, Coulter Electronics), and the growth inhibition percent (%) of the cells at each concentration of a test compound is calculated from the following equation: [formula] Tx: Number of the cells in a test tube containing a test compound as counted upon completion of the incubation (cells/ml)
Cx: Number of the cells in a test tube containing no test compound as counted upon completion of the incubation (cells/ml)
Co: Number of the cells in a test tube containing no test compound as counted at the initiation of the incubation (cells/ml)
4. The concentration of the test compound, which causes cell growth inhibition by 50%, is determined by the graph showing the relationship between the growth inhibition percent and the concentration of the test compound, and is defined as 50% inhibitory concentration (IC50).

[2] = test system: Mouse lymphoma cell line P388; assay: In vitro anti-proliferative activity against mouse tumor cell lines, Test Method 2 (P388); conditions: P388, 48 hours, 37° C.
Description: as §1, §2, §3, §4, §5

SMILES: C#Cc1[nH]cnc1C#N [5-ethynylimidazole-4-carbonitrile]
- IC50 (mouse sarcoma 180): 9.92 µg/mL (≈ 84.7 µM)
- IC50 [1]: 2.9 µg/mL (≈ 24.8 µM)
- IC50 [2]: 14.1 µg/mL (≈ 120 µM)

SMILES: N#Cc1ncn([C@@H]2O[C@H](CO)[C@@H](O)[C@H]2O)c1C#CCO [R = [drawing 28]; A = CN; R^1 = CH2 OH, 5-(3-Hydroxy-1-propyn-1-yl)-1-β-D-ribofuranosylimidazole-4-carbonitrile]
- IC50 [1]: 4.1 µg/mL (≈ 14.7 µM)

SMILES: NC(=O)c1ncn([C@@H]2O[C@H](CO)[C@@H](O)[C@H]2O)c1C#CCO [R = [drawing 28]; A = CONH2; R^1 = CH2 OH, 5-(3-Hydroxy-1-propyn-1-yl)-1-β-D-ribofuranosylimidazole-4-carboxamide]
- IC50 [1]: 0.7 µg/mL (≈ 2.35 µM)

SMILES: C#Cc1[nH]cnc1C(N)=O [5-ethynylimidazole-4-carboxamide]
- IC50 (mouse sarcoma 180): 1.39 µg/mL (≈ 10.3 µM)
- IC50 [1]: 4 µg/mL (≈ 29.6 µM)
- IC50 [2]: 4.37 µg/mL (≈ 32.3 µM)

SMILES: NC(=O)c1ncn([C@@H]2O[C@H](CO)[C@@H](O)[C@H]2O)c1C#CCCO [5-(4-hydroxy-1butyn-1-yl)-1β-D-ribofuranosylimidazole-4-carboxamide]
- IC50 [1]: 1.28 µg/mL (≈ 4.11 µM)

SMILES: CCCC#Cc1c(C(N)=O)ncn1[C@@H]1O[C@H](CO)[C@@H](O)[C@H]1O [R = [drawing 28]; A = CONH2; R^1 = C3, 5-(1-pentyn-1-yl)-1-β-D-ribofuranosylimidazole-4-carboxamide]
- IC50 [1]: 2.92 µg/mL (≈ 9.44 µM)

SMILES: C#Cc1c(C#N)ncn1[C@@H]1O[C@H](CO)[C@@H](O)[C@H]1O [5-ethynyl-1-β-D-ribofuranosylimidazole-4-carbonitrile]
- IC50 (mouse sarcoma 180): 0.8 µg/mL (≈ 3.21 µM)
- IC50 [1]: 1.9 µg/mL (≈ 7.62 µM)
- IC50 [2]: 0.93 µg/mL (≈ 3.73 µM)

SMILES: N#Cc1ncn([C@@H]2O[C@H](CO)[C@@H](O)[C@H]2O)c1C#CCCO [R = [drawing 28]; A = CN; R^1 = CH2 CH2 OH, 5-(4-hydroxy-1-butyn-1yl)-1-β-D-ribofuranosylimidazole-4-carbonitrile]
- IC50 [1]: 3.3 µg/mL (≈ 11.3 µM)
